Results: patent US20020018778A1, “Passive desensitization” (priority 1999, published 2002)

What follows are sequences tested on serum IgE from mice sensitized to recombinant Ara h 2 (assay: IgE immunoblot mapping of murine IgE binding epitopes in Ara h 2). Details: mouse Ara h 2 epitopes; densitometric analysis of the blot.
Experimental: (§1) IGE IMMUNOBLOT ANALYSIS: Membranes to be blotted were prepared either by SDS-PAGE (performed by the method of Laemmli Nature 227:680-685, 1970; incorporated herein by reference) of digested peanut antigen or by synthesis of antigen peptides on a derivativized cellulose membrane. SDS-PAGE gels were composed of 10% acrylamide resolving gel and 4% acrylamide stacking gel. Electrophoretic transfer and immunoblotting on nitrocellulose paper was performed by the procedures of Towbin (Proc. Natl. Acad. Sci. USA 76:4350-4354, 1979; incorporated herein by reference).
For mapping of murine IgE binding sites, a blot containing overlapping 13 mer peptides, offset by 2 amino acids, was incubated with serum from peanut sensitized mice as described in U.S. patent application Ser. No. 09/455,294, filed Dec. 6, 1999; incorporated herein by reference.
PEPTIDE SYNTHESIS: Individual peptides were synthesized on a derivativized cellulose membrane using Fmoc amino acid active esters according to the manufacturer's instructions (Genosys Biotechnologies, Woodlands, Tex.). Fmoc-amino acid derivatives were dissolved in 1-methyl-2-pyrrolidone and loaded on marked spots on the membrane. Coupling reactions were followed by acetylation with a solution of 4% (v/v) acetic anhydride in N,N-dimethyl formamide (DMF). After acetylation, Fmoc groups were removed by incubation of the membrane in 20% (v/v) piperdine in DMF. […]
RCQSQLERA [mouse Ara h 2 epitope (3)] was tested, and the “contribution to the observed IgE reactivity, single epitope” value was “about 15%”.

These sequences were tested on serum IgE from patients with documented peanut hypersensitivity (assay: IgE immunoblot mapping of human IgE binding epitopes on synthesized peanut antigen peptides). Details: Ara h 3 epitope; 10 patients tested.
Experimental: as §1
[…] […] At least 5 ml of venous blood was drawn from each patient and allowed to clot, and the serum was collected. All studies were approved by the Human Use Advisory Committee at the University of Arkansas for Medical Sciences. Serum was diluted in a solution containing TBS and 1% bovine serum albumin and incubated with antigen for at least 12 h at 4° C. or for 2 h at room temperature. The bound primary antibody was detected with ^125I-labeled anti-IgE antibody (Sanofi Diagnostics Pasteur Inc., Paris, France).
PEPTIDE SYNTHESIS: Individual peptides were synthesized on a derivativized cellulose membrane using Fmoc amino acid active esters according to the manufacturer's instructions (Genosys Biotechnologies, Woodlands, Tex.). Fmoc-amino acid derivatives were dissolved in 1-methyl-2-pyrrolidone and loaded on marked spots on the membrane. Coupling reactions were followed by acetylation with a solution of 4% (v/v) acetic anhydride in N,N-dimethyl formamide (DMF). After acetylation, Fmoc groups were removed by incubation of the membrane in 20% (v/v) piperdine in DMF. The membrane was then stained with bromophenol blue to identify the location of the free amino groups. Cycles of coupling, blocking, and deprotection were repeated until the peptides of the desired length were synthesized. After addition of the last amino acid in the peptide, the amino acid side chains were deprotected using a solution of dichloromethane/trifluoroacetic acid/triusobutylsilante (1/10/0.05). Membranes were either probed immediately or stored at −20° C. until needed.
For VTVRGGLRTLSPDRK [Ara h 3 epitope 3], the “patients whose serum IgE recognized the epitope” value was 10.

Same assay, conditions: human IgE binding epitopes in Ara h 3
IETWNPNNQEFECAG [Ara h 3 epitope 1] was tested, and the “FRACTION OF PATIENTS WITH IGE THAT BIND” value was 1 (25%).
For GNIFSGFTPEFLEQA [Ara h 3 epitope 2], the “FRACTION OF PATIENTS WITH IGE THAT BIND” value was 2 (38%).
For DEDEYEYDEEDRRRG [Ara h 3 epitope 4], the “FRACTION OF PATIENTS WITH IGE THAT BIND” value was 4 (38%).
In the case of VTVRGGLRTLSPDRK [Ara h 3 epitope 3], the “FRACTION OF PATIENTS WITH IGE THAT BIND” value was 3 (100%).

The sequences below were run on T cell preparations (assay: T cell stimulation by 5/20 native Ara h 2 peptides). Details: analysis of 15 patients.
Type: cell-based, human
Experimental: Each peptide was tested, using standard techniques, on 19 different T cell preparations. Positive scores, defined as a T cell stimulation index of >2, are indicated by shading.
Each of these peptides was tested for its ability to stimulate T cells. Each peptide was tested, using standard techniques, on 19 different T cell preparations. Positive scores, defined as a T cell stimulation index of >2, are indicated by shading.
As discussed herein, it may sometimes be desirable to prepare blocking agent compositions comprising antigen fragments (e.g., IgE binding site and one or more T cell epitopes).
With LLAAHASARQQWELQGDRRC [Peptide 3] the “single IgE site and T cell epitope in the same peptide” value (“single IgE site and T cell epitope” for short) was “both a single IgE site and a T cell epitope recognized by at least one person”.
In the case of ALALFLLAAHASARQQWELQ [Peptide 2], the “single IgE site and T cell epitope” value was “both a single IgE site and a T cell epitope recognized by at least one person”.
LMQKIQRDEDSYERDPYSPS [Peptide 10] was tested, and the “single IgE site and T cell epitope” value was “both a single IgE site and a T cell epitope recognized by at least one person”.
PCEQHLMQKIQRDEDSYERD [Peptide 9] was tested, and the “single IgE site and T cell epitope” value was “both a single IgE site and a T cell epitope recognized by at least one person”.
LTILVALALFLLAAHASARQ [Peptide 1] was tested, and the “single IgE site and T cell epitope” value was “both a single IgE site and a T cell epitope recognized by at least one person”.
RANLRPCEQHLMQKIQRDED [Peptide 8] was tested, and the “single IgE site and T cell epitope” value was “both a single IgE site and a T cell epitope recognized by at least one person”.
